The subject of one assay is 3T3-L1 preadipocytes. Kind of assay: Adipogenic differentiation of 3T3-L1 preadipocytes (Oil red O, triglyceride content). It counts as cell-based, mouse. How it is done: (§1) 3T3-L1 preadipocytes were grown to confluency in DMEM containing 10% CS. At 2 days post-confluency, the cells were stimulated with differentiation medium (DMEM containing 10% FBS, 10 μg/mL insulin, 1 μM dexamethasone, and 0.5 mM IBMX) for 48 h. Then, the cells were exposed in post-differentiation-maintaining medium (DMEM containing 10% FBS and 10 μg/mL insulin) for a further 48 h, which was replaced with expansion medium (DMEM containing 10% FBS) every 2 days after then. Compounds were added to the post-differentiation and expansion medium. At day 4, the cells were harvested for RNA preparation. At Day 8, the cells were fixed with 10% formaldehyde and stained with Oil red O solution. After washing with water, photos were taken. Solubilized dye was quantified at 550 nm. In addition, total triglyceride of the cells was measured by a total TG measurement kit (Applygene, China). Experiments were performed at least three times.

The subject of another assay is diabetic KKAy mice. Kind of assay: Diabetic KKAy mice, 21 days treatment (fasting blood glucose, OGTT, ITT, body weight). The following applies: after 21 days, F12016 75 mg/kg, rosiglitazone 5 mg/kg.
Assay [1] has as its system osteoblast marker genes in MC3T3-E1 cells. Details: method as in PMID 21892191. The following applies: rosiglitazone 10 μM; cited from earlier work.
The test system of the next assay is MC3T3-E1 preosteoblasts. The assay can be described thus: Osteoblastic differentiation of MC3T3-E1 cells (Alizarin red S, Alp activity). To be noted: F12016 1, 10, 30 μM. The class given is cell-based. Here is the method: (§2) MC3T3-E1 cells were cultured in α-MEM to confluency in 24-well plates and then cultured in differentiation medium (α-MEM supplemented with 200 μM ascorbic acid and 10 mM β-glycerophosphate) for 7, 14, and 21 days, which was replaced every 3 days. The cells were treated with DMSO, rosiglitazone, or F12016 at the start of differentiation. At day 8, 15 and 22, total RNA was isolated, and real-time PCR was performed as described below.
Mature osteoblasts were stained with Alizarin red S and Alp activity were measured at day 22. In brief, cells were fixed with 75% ethanol and stained with 40 mM Alizarin red S solution (pH 4.1–4.3) for 10 min. For Alp assay, the cells were harvested and sonicated on ice with two 30s-pulses. Supernatant of lysate was incubated with isopyknic 1.0 mg/ml pNPP (Sigma–aldrich) solution (1 M diethanolamine buffer, 0.5 mM magnesium chloride) for 30 min at 37°C. The reaction was measured at 405 nm. Relative ALP activity was normalized to the protein concentration.

Assay [2] has as its system PPARγ target genes in differentiating 3T3-L1 cells. The assay can be described thus: Expression of adipogenesis-related and PPARγ-responsive genes in differentiating 3T3-L1 adipocytes (qPCR). It counts as cell-based, mouse. How it is done:
as §1
(§3) Total RNA was extracted using TRIzol reagent (Invitrogen). First-strand cDNA was synthesized from the total RNA using a reverse transcriptional kit (TransGen). Quantitative PCR with SYBR Green (Roche Diagnostics, Lewes, UK) was performed on a Stratagene MX3000P real-time PCR system (Agilent). Melting curves were obtained, and the specificity of PCR products was checked on agarose gels. Relative mRNA expression was determined by the ΔΔCt method and normalized to GAPDH mRNA levels.

For assay [3], the system named is osteoblast marker genes in MC3T3-E1 cells. The assay can be described thus: Expression of osteoblast marker genes in MC3T3-E1 cells (qPCR). It counts as cell-based. Here is the method: as §2, §3
In general terms: In qPCR the cycle at which signal appears reflects the starting amount.

Another assay has as its system PPARγ LBD mutants. It counts as cell-based, human. The following applies: compared with wild-type PPARγ LBD. How it is done:
All chemicals were purchased from Sigma-Aldrich (St. Louis, MO, USA). All medium and serum were obtained from Gibco (Invitrogen). […] Mutations in pBIND-PPARγ-LBD were created by site-directed mutagenesis using the Fast Mutagenesis System (TransGen Biotech, Beijing, China).
The determination of nuclear receptor activation was performed as previously. Briefly, HEK293T cells were transfected with GAL4-pGL4-luc reporter plasmid and pBIND-PPARγ-LBD expression plasmid using Lipofectamine 2000 (Invitrogen) for 6 h before treatment with compounds for 20–24 h. Activity was determined by the Luciferase Assay System (Promega).

Method for diabetic KKAy mice: Fasting blood glucose was measured with Onetoch Ultra Teststrip (Johnson & Johnson) at day 0, 3, 7, 14, 21, and body weight were monitored during these days.
After 14 days of treatment, oral glucose tolerance test (OGTT) was performed. Mice were fasted for 6 h with free access to water. 2 g/kg of glucose was given by gavage and blood glucose was measured at 0, 30, 60, 90, and 120 min.
After 21 days of feeding, insulin tolerance test (ITT) was carried out. Mice were fasted for 4 h before being injected 1 U/kg of recombinant human insulin (Novo Nordisk) subcutaneously, and blood glucose was measured at 0, 40, 90, and 120 min after insulin injection.

Regarding `O=C(Nc1ccccc1)c1cc([N+](=O)[O-])ccc1Cl` [GW9662, reference compound], the “effect of co-incubation on rosiglitazone-induced adipogenesis” value with 3T3-L1 preadipocytes (GW9662 20 μM plus RGZ 10 μM) is on record as “weakened”.
As to `CN(CCOc1ccc(CC2SC(=O)NC2=O)cc1)c1ccccn1` (centres unmarked) [rosiglitazone, reference compound], the “blood glucose after insulin injection (ITT)” value in the assay with diabetic KKAy mice (insulin 1 IU/kg) was “significantly reduced blood glucose”. In addition, the average body weight result with diabetic KKAy mice (vs vehicle) is reported as “showed weight gain in a certain extent”. Also, the “expression of RANKL in differentiated MC3T3-E1 cells” value in assay [1] was “reduced expression of RANKL”. For the same compound, in the assay with 3T3-L1 preadipocytes (6 days of stimulation), the “intracellular triglyceride (TG) content” value was “significant increase”. Also, the “lipid accumulation / intracellular lipid droplets (Oil red O staining)” value with 3T3-L1 preadipocytes (RGZ 0.1, 1, 10 μM, F12016 1, 10, 30 μM) was “significant increase in Oil red O staining”. For the same compound, in the assay with MC3T3-E1 preosteoblasts, the “alkaline phosphatase (Alp) activity” value is given as “significantly reduced alkaline phosphatase (Alp) activity” and the “mineralization (Alizarin Red S)” value is reported as “impaired calcification of bone cells”. Moreover, the “mRNA levels of 11β-HSD1” value in assay [2] was “similarly decreased the mRNA levels”. Moreover, the “expression of fatty acid synthase (Fasn)” value in assay [2] (both compounds to a similar extent) is recorded as “upregulated expression”. Moreover, the “expression of Alp and Col1” value in assay [3] (7 days) is “reduced expressions”. In assay [3] (7 days, rosiglitazone 1 μM, compared with control), the “expression of RANKL” value is “not significantly changed”. Further, the “expression of Ibsp and Bglap” value in assay [3] (Ibsp 14 days, Bglap 21 days) was “reduced expressions”. In the assay on PPARγ LBD mutants, the “activation of S289A, H323A, H449A and Y473A mutants” value was “nearly abolished”.

The values above are taken from PMC4381330, “Identification of a novel selective agonist of PPARγ with no promotion of adipogenesis and less inhibition of osteoblastogenesis” (Scientific Reports, 2015).
